This is an account of results in patent publication US20250051347A1, “BIFUNCTIONAL CHIMERIC HETEROCYCLIC COMPOUND AND USE THEREOF AS ANDROGEN RECEPTOR DEGRADER” (Hinova Pharmaceuticals, Inc., priority 2021, published 2025).

In data set [1] the target is T1, androgen receptor (AR) splicing variant AR-v7 (Homo sapiens, UniProt P10275).
T1 construct: The degradation activity of compounds on AR-v7 in 22RV1 cells; host or cells: 22RV1 cells
T1 sequence (P10275 1-644 isoform P10275-3): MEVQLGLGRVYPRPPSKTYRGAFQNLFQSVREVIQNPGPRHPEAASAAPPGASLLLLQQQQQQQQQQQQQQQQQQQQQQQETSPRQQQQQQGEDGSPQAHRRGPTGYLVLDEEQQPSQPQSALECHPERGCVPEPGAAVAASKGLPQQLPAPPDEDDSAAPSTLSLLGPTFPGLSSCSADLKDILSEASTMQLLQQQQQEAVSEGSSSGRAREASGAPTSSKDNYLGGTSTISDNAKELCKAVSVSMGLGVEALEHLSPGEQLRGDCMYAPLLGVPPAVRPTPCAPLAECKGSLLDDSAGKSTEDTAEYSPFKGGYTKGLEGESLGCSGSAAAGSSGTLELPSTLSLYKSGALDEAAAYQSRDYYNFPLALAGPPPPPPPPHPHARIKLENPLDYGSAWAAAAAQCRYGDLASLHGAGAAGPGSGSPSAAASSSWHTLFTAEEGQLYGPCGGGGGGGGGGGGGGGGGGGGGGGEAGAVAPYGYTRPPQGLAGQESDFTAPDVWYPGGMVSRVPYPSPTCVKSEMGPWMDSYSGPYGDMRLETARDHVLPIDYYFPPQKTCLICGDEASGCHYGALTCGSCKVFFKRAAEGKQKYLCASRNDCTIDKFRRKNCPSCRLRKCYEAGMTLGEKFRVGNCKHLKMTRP
As to the kind of experiment: Degradation activity on androgen receptor splicing variant AR-v7 in 22RV1 cells (ELISA). In kind it is cell-based. Particulars: AR-v7 degradation in 22RV1 cells, 48 h, class symbols. A general note: ELISA stands for enzyme-linked immunosorbent assay.

Data set [2] can be described thus: Pharmacokinetics in mice (plasma exposure after oral administration). Format: in vivo. Particulars: mouse, ICR mice, oral (i.g.) 3 mg/kg, read-out: After oral administration of 3 mg/kg, mouse plasma exposure AUCinf.
A further data set deals with 22RV1 cells. The conditions noted are these: Homo sapiens, 22Rv1, 144 h, read-out: 22RV1 IC50 (nM), 22RV1 cells, 6 days culture, CCK-8, OD 450 nm.

In general, DC50 refers to the midpoint of the concentration-degradation curve. A lower DC50 goes with a more potent degrader. Usually IC50 stands for the midpoint of a concentration-inhibition curve. Take `Cc1nc(-c2nccc(COc3ccc(C(C)(C)c4ccc(O[C@H]5C[C@H](Nc6ccc7c(c6)C(=O)N(C6CCC(=O)NC6=O)C7=O)C5)cc4)cc3)n2)no1` (stereo partly drawn) [Example 279]: the DC50 in data set [1] was below 10 nM. The AUC(0-inf) in data set [2] lay within 5000 to 30000 ng·h/mL. Further, the IC50 with 22RV1 cells was determined as 4 nM.
For `CC(C)(c1ccc(OCc2ccnc(N3CC4(COC4)C3)n2)cc1)c1ccc(OC[C@@H]2CCN2c2ccc3c(c2)C(=O)N(C2CCC(=O)NC2=O)C3=O)cc1` (stereo partly drawn) [Example 312, 5-((S)-2-((4-(2-(4-((2-(2-oxa-6-azaspiro[3.3]heptan-6-yl)pyrimidin-4-yl)methoxy)phenyl)propan-2-yl)phenoxy)methyl)azetidin-1-yl)-2-(2,6-dioxopiperidin-3-yl)isoindolin-1,3-dione], in that order: below 10 nM, 100 to 1000 ng·h/mL and 22 nM.
For `CC(C)(c1ccc(Oc2ncc(-n3nccn3)cn2)cc1)c1ccc(O[C@H]2C[C@H](Nc3ccc4c(c3)C(=O)N(C3CCC(=O)NC3=O)C4=O)C2)cc1` (stereo partly drawn) [Example 321], in that order: below 10 nM, 5000 to 30000 ng·h/mL and 8 nM.
For `Cc1nnc(-c2ccc(Oc3ccc(C(C)(C)c4ccc(O[C@H]5C[C@H](Nc6ccc7c(c6)C(=O)N(C6CCC(=O)NC6=O)C7=O)C5)cc4)cc3)cn2)o1` (stereo partly drawn) [Example 323], in that order: below 10 nM, 5000 to 30000 ng·h/mL and 11 nM.
On to `CC(C)(c1ccc(Oc2ccc(-n3nccn3)nn2)cc1)c1ccc(O[C@H]2C[C@H](Nc3ccc4c(c3)C(=O)N(C3CCC(=O)NC3=O)C4=O)C2)cc1` (stereo partly drawn) [Example 324], for which, in data set [1], the DC50 is below 10 nM. For the same compound, the AUC(0-inf) in data set [2] lay within 5000 to 30000 ng·h/mL. The IC50 in the data set with 22RV1 cells was found to be 4 nM.
For `Cc1nc(-c2ccc(Oc3ccc(C(C)(C)c4ccc(O[C@H]5C[C@H](Nc6ccc7c(c6)C(=O)N(C6CCC(=O)NC6=O)C7=O)C5)cc4)cc3)nn2)no1` (stereo partly drawn) [Example 328], in that order: 11 to 100 nM, 5000 to 30000 ng·h/mL and 5 nM.
For `Cc1nc(-c2ccc(Oc3ccc(C4(c5ccc(O[C@H]6C[C@H](Nc7ccc8c(c7)C(=O)N(C7CCC(=O)NC7=O)C8=O)C6)cc5)CCCC4)cc3)nn2)no1` (stereo partly drawn) [Example 338], in that order: below 10 nM, 1000 to 5000 ng·h/mL and 2 nM.
For `O=C1CCC(N2C(=O)c3ccc(N[C@H]4C[C@H](Oc5ccc(C6(c7ccc(OCc8ccnc(N9CC%10(COC%10)C9)n8)cc7)COC6)cc5)C4)cc3C2=O)C(=O)N1` (stereo partly drawn) [Example 355, 5-(((1r,3r)-3-(4-(3-(4-((2-(2-oxa-6-azaspiro[3.3]heptane-6-yl)pyrimidin-4-yl)methoxy)phenyl)oxetane-3-yl)phenoxy)cyclobutyl)amino)-2-(2,6-dioxopiperidin-3-yl)isoindolin-1,3-dione], in that order: below 10 nM, 5000 to 30000 ng·h/mL and 2 nM.
Consider `O=C1CCC(N2C(=O)c3ccc(N[C@H]4C[C@H](Oc5ccc(C6(c7ccc(OCc8ccnc(N9CC%10(COC%10)C9)n8)cc7)CCC6)cc5)C4)cc3C2=O)C(=O)N1` (stereo partly drawn) [Example 358, 5-(((1r,3r)-3-(4-(1-(4-((2-(2-oxa-6-azaspiro[3.3]heptane-6-yl)pyrimidin-4-yl)methoxy)phenyl)cyclobutyl)phenoxy)cyclobutyl)amino)-2-(2,6-dioxopiperidin-3-yl)isoindolin-1,3-dione], for which the DC50 in data set [1] is below 10 nM. Further, in data set [2], the AUC(0-inf) lay in the range of 1000 to 5000 ng·h/mL. For the same compound, the IC50 in the data set on 22RV1 cells worked out at 9 nM.
For `O=C1CCC(N2C(=O)c3ccc(N[C@H]4C[C@@H](Oc5ccc(C6(c7ccc(OCc8ccnc(N9CC%10(COC%10)C9)n8)cc7)CCC6)cc5)C4)cc3C2=O)C(=O)N1` (stereo partly drawn) [Example 359, 5-(((1s,3s)-3-(4-(1-(4-((2-(2-oxa-6-azaspiro[3.3]heptane-6-yl)pyrimidin-4-yl)methoxy)phenyl)cyclobutyl)phenoxy)cyclobutyl)amino)-2-(2,6-dioxopiperidin-3-yl)isoindolin-1,3-dione] the same measures were below 10 nM, 1000 to 5000 ng·h/mL and 6 nM.
